Laboratory results: ChEMBL document CHEMBL1201862, “PubChem BioAssay data set” (2004)
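Dose response: 5 concentrations. Exposure: 48 h. Format: 96-well plates. Endpoint: linear interpolation; highest concentration if not reached. Abbreviation: GI50, concentration required for 50% inhibition of growth.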 Active and inactive are the calls of the source. No stated cut-off is given here; in the data, active = GI50 up to about 1.1 µM and inactive = higher.

Experiments:
Experiment in all cases: NCI anticancer screen, dose series, 48 h
A549 = system: A549
ACHN = system: ACHN
CCRF-CEM = system: CCRF-CEM
EKVX = system: EKVX
HCC 2998 = system: HCC 2998
HT-29 = system: HT-29
KM12 = system: KM12
NCI-H522 = system: NCI-H522
OVCAR-3 = system: OVCAR-3
OVCAR-4 = system: OVCAR-4
SK-MEL-2 = system: SK-MEL-2
SK-OV-3 = system: SK-OV-3
SN12C = system: SN12C
SNB-19 = system: SNB-19
SR = system: SR
PC-3 = system: PC-3
SK-MEL-5 = system: SK-MEL-5
HOP-92 = system: HOP-92

Structure (SMILES) | GI50 (A549) | GI50 (ACHN) | GI50 (CCRF-CEM) | GI50 (EKVX) | GI50 (HCC 2998) | GI50 (HT-29) | GI50 (KM12) | GI50 (NCI-H522) | GI50 (OVCAR-3) | GI50 (OVCAR-4) | GI50 (SK-MEL-2) | GI50 (SK-OV-3) | GI50 (SN12C) | GI50 (SNB-19) | GI50 (SR) | GI50 (PC-3) | GI50 (SK-MEL-5) | GI50 (HOP-92)
S=C(Nc1ccccc1)N1N=C2c3ccccc3CC[C@H]2[C@@H]1c1ccccc1 | 4.66 µM (inactive) | 6.78 µM (inactive) | 2.91 µM (inactive) | > 100 µM (inactive) | > 100 µM (inactive) | 2.81 µM (inactive) | 2.79 µM (inactive) | 0.581 µM (active) | 1.88 µM (inactive) | 47.1 µM (inactive) | 2.35 µM (inactive) | 2.22 µM (inactive) | 37.2 µM (inactive) | 9.18 µM (inactive) | 0.248 µM (active) | – | – | –
N#CI1OC(=O)c2ccccc21 | > 100 µM (inactive) | > 100 µM (inactive) | 2.83 µM (inactive) | > 100 µM (inactive) | > 100 µM (inactive) | > 100 µM (inactive) | > 100 µM (inactive) | 18.2 µM (inactive) | > 100 µM (inactive) | > 100 µM (inactive) | > 100 µM (inactive) | > 100 µM (inactive) | > 100 µM (inactive) | – | 23.6 µM (inactive) | > 100 µM (inactive) | > 100 µM (inactive) | –
Cc1oc2nc(N(C)C)n3c(C)nnc3c2c1C | > 100 µM (inactive) | > 100 µM (inactive) | > 100 µM (inactive) | > 100 µM (inactive) | > 100 µM (inactive) | > 100 µM (inactive) | > 100 µM (inactive) | > 100 µM (inactive) | – | > 100 µM (inactive) | – | > 100 µM (inactive) | > 100 µM (inactive) | > 100 µM (inactive) | > 100 µM (inactive) | – | > 100 µM (inactive) | > 100 µM (inactive)
O=C(Nc1ccc(Cl)c(Cl)c1)C(=O)C(C(=O)c1ccccc1-c1ccccc1)C1OC(=O)c2ccccc21 (stereo not given) | 21.3 µM (inactive) | 31.3 µM (inactive) | 12.1 µM (inactive) | 20.8 µM (inactive) | 14.5 µM (inactive) | 29.8 µM (inactive) | 14.7 µM (inactive) | 6.56 µM (inactive) | 13.1 µM (inactive) | – | 11.4 µM (inactive) | 28.5 µM (inactive) | – | – | – | – | 15.1 µM (inactive) | 12.9 µM (inactive)
CC1=NN(C(=O)c2ccc(Cl)cc2)C(=O)/C1=C/c1ccco1 | > 100 µM (inactive) | > 100 µM (inactive) | > 100 µM (inactive) | > 100 µM (inactive) | > 100 µM (inactive) | > 100 µM (inactive) | > 100 µM (inactive) | > 100 µM (inactive) | > 100 µM (inactive) | > 100 µM (inactive) | > 100 µM (inactive) | > 100 µM (inactive) | > 100 µM (inactive) | > 100 µM (inactive) | – | – | > 100 µM (inactive) | > 100 µM (inactive)
Cc1ccc(NC(=O)C2C(=O)C(=O)N(c3ccc(C)cc3)C2=O)cc1 (stereo not given) | > 100 µM (inactive) | > 100 µM (inactive) | > 100 µM (inactive) | > 100 µM (inactive) | > 100 µM (inactive) | > 100 µM (inactive) | > 100 µM (inactive) | > 100 µM (inactive) | – | > 100 µM (inactive) | > 100 µM (inactive) | – | > 100 µM (inactive) | > 100 µM (inactive) | > 100 µM (inactive) | – | > 100 µM (inactive) | > 100 µM (inactive)
CCCCCCCCCCCCCS(=O)(=O)O | > 100 µM (inactive) | > 100 µM (inactive) | > 100 µM (inactive) | > 100 µM (inactive) | > 100 µM (inactive) | > 100 µM (inactive) | > 100 µM (inactive) | > 100 µM (inactive) | > 100 µM (inactive) | > 100 µM (inactive) | > 100 µM (inactive) | – | > 100 µM (inactive) | > 100 µM (inactive) | – | – | > 100 µM (inactive) | > 100 µM (inactive)
